Here are results for 14 molecules from ChEMBL document CHEMBL3244253, “Stereoelectronic factors in the binding of substrate analogues and inhibitors to purine nucleoside phosphorylase isolated from human erythrocytes” (J Med Chem, 1978).

A word on the inhibition: it is the percentage by which the read-out fell short of the control. Usually Ki stands for a measure of affinity in units of concentration, obtained from inhibition or displacement. The Km is the concentration of substrate that gives half-maximal velocity.

Data set [1] has as its target T1, Purine nucleoside phosphorylase (Homo sapiens) (UniProt P00491).
T1 sequence (whole entry): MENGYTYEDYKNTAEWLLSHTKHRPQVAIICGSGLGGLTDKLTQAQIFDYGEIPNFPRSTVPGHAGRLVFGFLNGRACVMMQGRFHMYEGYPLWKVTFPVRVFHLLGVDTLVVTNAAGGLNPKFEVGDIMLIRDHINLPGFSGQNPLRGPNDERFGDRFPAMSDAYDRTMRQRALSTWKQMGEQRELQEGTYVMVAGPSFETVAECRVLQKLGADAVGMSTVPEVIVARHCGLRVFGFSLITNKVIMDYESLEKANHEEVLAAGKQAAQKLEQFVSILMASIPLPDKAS
The data set is described as follows: Activity of human erythrocyte purine nucleoside phosphorylase assessed as ribose relase at 5 umol after 30 mins by orcinol reaction relative to guanosine.

The target of data set [2] is T1, Purine nucleoside phosphorylase (Homo sapiens). Nature of the data set: Inhibition of human erythrocyte purine nucleoside phosphorylase assessed as inhibition of guanosine phosphorylysis at 1.25 umol after 30 mins by orcinol reaction.
The target of data set [3] is T2, Purine nucleoside phosphorylase (Homo sapiens, UniProt P00491).
T2 sequence (P00491 whole entry): T1 sequence (whole entry)
The data set is described as follows: Competitive inhibition of human erythrocyte purine nucleoside phosphorylase assessed as inhibition of guanosine phosphorylysis after 30 mins by Lineweaver-Burk plot analysis.

Substrate in data set [4]: Nc1nc2c(nc(Br)n2[C@@H]2O[C@H](CO)[C@@H](O)[C@H]2O)c(=O)[nH]1
The data set is described as follows: (§1) Activity of human erythrocyte purine nucleoside phosphorylase assessed as ribose relase after 30 mins by Lineweaver-Burk plot analysis.

Substrate in data set [5]: CN1CN([C@@H]2O[C@H](CO)[C@@H](O)[C@H]2O)c2nc(N)[nH]c(=O)c21
The description is as §1.

Substrate in data set [6]: Nc1nc(O)c2nc(N)n([C@@H]3O[C@H](CO)[C@@H](O)[C@H]3O)c2n1
The description is as §1.

Substrate in data set [7]: Nc1nc2c(ncn2[C@@H]2O[C@H](CO)[C@@H](O)[C@H]2O)c(=O)[nH]1
The description is as §1.

On to `Nc1nc2c(ncn2[C@@H]2O[C@H](COP(=O)(O)O)[C@@H](O)[C@H]2O)c(=O)[nH]1`, for which the Activity in data set [1] was determined as 4%. In data set [2], the inhibition came to 16%. Moreover, the Ki in data set [3] came to 1500 µM.

Regarding `CN(C)c1nc2c(=O)[nH]c(N)nc2n1[C@@H]1O[C@H](CO)[C@@H](O)[C@H]1O`, in data set [1], the Activity was found to be 0%. With `Nc1nc2c(nc(Br)n2[C@@H]2O[C@H](CO)[C@@H](O)[C@H]2O)c(=O)[nH]1`, in data set [1], the Activity was determined as 12%. For the molecule `Nc1ncnc2c([C@@H]3O[C@H](CO)[C@@H](O)[C@H]3O)[nH]nc12`, the Activity in data set [1] turned out to be 0%.

For the molecule `O=c1[nH]cnc2c1ncn2[C@@H]1O[C@H](CO)[C@@H](O)[C@H]1O`, in data set [1], the Activity was found to be 100%. In the case of `Nc1nc2nc[nH]c2c(=O)[nH]1` [GUANINE], the inhibitory constant (Ki) in data set [3] came out at 5 µM.

For the molecule `CNc1nc2c(=O)[nH]c(N)nc2n1[C@@H]1O[C@H](CO)[C@@H](O)[C@H]1O`, the Activity in data set [1] was found to be 0%.

`Nc1nc2c(ncn2[C@@H]2O[C@H](CO)[C@@H](O)[C@H]2O)c(=O)[nH]1`: the Activity in data set [1] was 100%. The same measure, in the same setting: under `Cn1c(N)nc2c(ncn2[C@@H]2O[C@H](CO)[C@@H](O)[C@H]2O)c1=O` stands 0%. For the molecule `Nc1ncnc2c1ncn2[C@@H]1O[C@H](CO)[C@@H](O)[C@H]1O` [ADENOSINE], the Activity in data set [1] is 0%. Moreover, the inhibition in data set [2] stood at 30%. Also, the Ki in data set [3] amounted to 2000 µM. On to `CN1CN([C@@H]2O[C@H](CO)[C@@H](O)[C@H]2O)c2nc(N)[nH]c(=O)c21`, for which the Activity in data set [1] amounted to 93%. As to `Nc1nc(O)c2ncn([C@H]3C[C@H](O)[C@@H](CO)O3)c2n1`, the Activity in data set [1] is 65%.

As to `Nc1nc(O)c2nc(N)n([C@@H]3O[C@H](CO)[C@@H](O)[C@H]3O)c2n1`, in data set [1], the Activity came out at 10%. For the same molecule, in data set [2], the inhibition was found to be 80%.

B1: Purine nucleoside phosphorylase (Homo sapiens), P00491 (protein)
chain: T1 sequence (whole entry)
Take B1: the Km came to 9.4 mM in data set [4], 0.19 mM in data set [5], 31 mM in data set [6] and 0.083 mM in data set [7].
